# Tests used:
# [1] = test system: Salmonella typhimurium TA98; assay: Ames test (reverse mutation test), pre-incubation method, strain TA98; details: for potential to induce reverse mutations: TA98, in the presence of S9 mix
# Description: (§1) Ames Test (Reverse Mutation Test)
# (§2) Metabolites 1 to 3 and Metabolites A to E were each tested herein. The purpose of this test is to evaluate the potential of each metabolite to induce reverse mutations in the standard strains of Salmonella typhimurium (TA98, TA1537, TA100, and TA1535) and Escherichia coli (WP2uvrA), in either the presence or absence of a rat liver metabolic activation system (S9 mix).
# (§3) The solvent used herein was dimethyl sulfoxide (DMSO, 100 μL/plate).
# (§4) The test was performed by the pre-incubation method with or without S9 mix. When the test was performed without S9 mix, sodium phosphate buffer solution (pH 7.4) was added.
# (§5) 0.5 mL of S9 mix or 0.5 mL of 0.1 mol/L sodium phosphate buffer solution (pH 7.4), and 0.1 mL of the bacterial culture solution were added to a test tube containing 0.1 mL of the negative control formulation (DMSO alone), the metabolite, or the positive control formulation. The mixtures were pre-incubated at 37° C. for 20 minutes while shaking. After the pre-incubation period, 2 mL of top agar were added and the mixtures were vortex-mixed and seeded onto plates. Two plates per treatment were used. Each plate was incubated at 37±1° C. for 48 hours or more and the revertant colonies were counted. The mean number of revertant colonies for each treatment plate was then calculated. The presence or absence of growth inhibition due to any antibacterial effect of the test article and precipitation of the test article was observed grossly or under a stereomicroscope. […] Evaluation was based on mean values with no statistical comparisons being used.
# Escherichia coli WP2uvrA = assay: Ames test (reverse mutation test), pre-incubation method, strain WP2uvrA; assay type: cell-based
# Text: as §1
# Two plates per treatment were used.
# [2] = test system: Salmonella typhimurium TA1537; assay: Ames test (reverse mutation test), pre-incubation method, strain TA1537; assay type: cell-based; details: for potential to induce reverse mutations: TA1537
# Description: as §1, §2, §3, §4, §5
# [3] = test system: Salmonella typhimurium TA100; assay: Ames test (reverse mutation test), pre-incubation method, strain TA100; assay type: cell-based; details: for potential to induce reverse mutations: TA100, in the presence of S9 mix
# Description: as §1, §2, §3, §4, §5
# [4] = test system: Salmonella typhimurium TA1535; assay: Ames test (reverse mutation test), pre-incubation method, strain TA1535; assay type: cell-based; details: TA1535
# Description: as §1, §2, §3, §4, §5
smiles,measurement,setting,value
Nc1cc(-c2cc(F)cc(OC(F)(F)F)c2)n(-c2cncc(F)c2)n1 [Metabolite 2],Number of revertant colonies TA98,"[1]; S9 mix +, dose 62 μg/plate",35
same,Number of revertant colonies TA98,"[1]; S9 mix −, dose 21 μg/plate",30
same,Number of revertant colonies TA98,"[1]; S9 mix −, dose 185 μg/plate",28
same,Number of revertant colonies WP2uvrA,"Escherichia coli WP2uvrA; S9 mix +, dose 6.9 μg/plate",19
same,Number of revertant colonies WP2uvrA,"Escherichia coli WP2uvrA; S9 mix +, dose 21 μg/plate",19
same,Number of revertant colonies WP2uvrA,"Escherichia coli WP2uvrA; S9 mix +, dose 62 μg/plate",19
same,Number of revertant colonies WP2uvrA,"Escherichia coli WP2uvrA; S9 mix +, dose 185 μg/plate",19
same,Number of revertant colonies WP2uvrA,"Escherichia coli WP2uvrA; S9 mix +, dose 556 μg/plate",17
same,Number of revertant colonies WP2uvrA,"Escherichia coli WP2uvrA; S9 mix +, dose 1667 μg/plate",14
same,Number of revertant colonies WP2uvrA,"Escherichia coli WP2uvrA; S9 mix +, dose 5000 μg/plate",9
same,Number of revertant colonies WP2uvrA,"Escherichia coli WP2uvrA; S9 mix −, dose 6.9 μg/plate",21
same,Number of revertant colonies WP2uvrA,"Escherichia coli WP2uvrA; S9 mix −, dose 21 μg/plate",16
same,Number of revertant colonies WP2uvrA,"Escherichia coli WP2uvrA; S9 mix −, dose 62 μg/plate",23
same,Number of revertant colonies WP2uvrA,"Escherichia coli WP2uvrA; S9 mix −, dose 185 μg/plate",20
same,Number of revertant colonies WP2uvrA,"Escherichia coli WP2uvrA; S9 mix −, dose 556 μg/plate",16
same,Number of revertant colonies WP2uvrA,"Escherichia coli WP2uvrA; S9 mix −, dose 1667 μg/plate",13
same,Number of revertant colonies WP2uvrA,"Escherichia coli WP2uvrA; S9 mix −, dose 5000 μg/plate",8
same,Number of revertant colonies TA1537,"[2]; S9 mix +, dose 6.9 μg/plate",12
same,Number of revertant colonies TA1537,"[2]; S9 mix +, dose 21 μg/plate",13
same,Number of revertant colonies TA1537,"[2]; S9 mix +, dose 62 μg/plate",12
same,Number of revertant colonies TA1537,"[2]; S9 mix +, dose 185 μg/plate",12
same,Number of revertant colonies TA1537,"[2]; S9 mix +, dose 556 μg/plate",8
same,Number of revertant colonies TA1537,"[2]; S9 mix +, dose 1667 μg/plate",0
same,Number of revertant colonies TA1537,"[2]; S9 mix +, dose 5000 μg/plate",1
same,Number of revertant colonies TA1537,"[2]; S9 mix −, dose 6.9 μg/plate",9
same,Number of revertant colonies TA1537,"[2]; S9 mix −, dose 21 μg/plate",8
same,Number of revertant colonies TA1537,"[2]; S9 mix −, dose 62 μg/plate",8
same,Number of revertant colonies TA1537,"[2]; S9 mix −, dose 185 μg/plate",8
same,Number of revertant colonies TA1537,"[2]; S9 mix −, dose 556 μg/plate",3
same,Number of revertant colonies TA1537,"[2]; S9 mix −, dose 1667 μg/plate",3
same,Number of revertant colonies TA1537,"[2]; S9 mix −, dose 5000 μg/plate",2
same,Number of revertant colonies TA100,"[3]; S9 mix +, dose 6.9 μg/plate",109
same,Number of revertant colonies TA100,"[3]; S9 mix +, dose 21 μg/plate",119
same,Number of revertant colonies TA100,"[3]; S9 mix +, dose 62 μg/plate",118
same,Number of revertant colonies TA100,"[3]; S9 mix +, dose 185 μg/plate",125
same,Number of revertant colonies TA100,"[3]; S9 mix +, dose 556 μg/plate",115
same,Number of revertant colonies TA100,"[3]; S9 mix +, dose 1667 μg/plate",97
same,Number of revertant colonies TA100,"[3]; S9 mix +, dose 5000 μg/plate",92
same,Number of revertant colonies TA100,"[3]; S9 mix −, dose 6.9 μg/plate",89
same,Number of revertant colonies TA100,"[3]; S9 mix −, dose 21 μg/plate",90
same,Number of revertant colonies TA100,"[3]; S9 mix −, dose 62 μg/plate",87
same,Number of revertant colonies TA100,"[3]; S9 mix −, dose 185 μg/plate",86
same,Number of revertant colonies TA100,"[3]; S9 mix −, dose 556 μg/plate",6
same,Number of revertant colonies TA100,"[3]; S9 mix −, dose 1667 μg/plate",5
same,Number of revertant colonies TA100,"[3]; S9 mix −, dose 5000 μg/plate",5
Nc1cc(-c2cc(F)cc(OC(F)(F)F)c2)n(-c2cncc(C(F)(F)F)c2)n1 [Metabolite 3],Number of revertant colonies TA98,"[1]; S9 mix +, dose 62 μg/plate",38
same,Number of revertant colonies TA98,"[1]; S9 mix −, dose 62 μg/plate",29
same,Number of revertant colonies WP2uvrA,"Escherichia coli WP2uvrA; S9 mix +, dose 6.9 μg/plate",22
same,Number of revertant colonies WP2uvrA,"Escherichia coli WP2uvrA; S9 mix +, dose 21 μg/plate",22
same,Number of revertant colonies WP2uvrA,"Escherichia coli WP2uvrA; S9 mix +, dose 62 μg/plate",21
same,Number of revertant colonies WP2uvrA,"Escherichia coli WP2uvrA; S9 mix +, dose 185 μg/plate",21
same,Number of revertant colonies WP2uvrA,"Escherichia coli WP2uvrA; S9 mix +, dose 556 μg/plate",18
same,Number of revertant colonies WP2uvrA,"Escherichia coli WP2uvrA; S9 mix +, dose 1667 μg/plate",21
same,Number of revertant colonies WP2uvrA,"Escherichia coli WP2uvrA; S9 mix +, dose 5000 μg/plate",19
same,Number of revertant colonies WP2uvrA,"Escherichia coli WP2uvrA; S9 mix −, dose 6.9 μg/plate",23
same,Number of revertant colonies WP2uvrA,"Escherichia coli WP2uvrA; S9 mix −, dose 21 μg/plate",15
same,Number of revertant colonies WP2uvrA,"Escherichia coli WP2uvrA; S9 mix −, dose 62 μg/plate",23
same,Number of revertant colonies WP2uvrA,"Escherichia coli WP2uvrA; S9 mix −, dose 185 μg/plate",20
same,Number of revertant colonies WP2uvrA,"Escherichia coli WP2uvrA; S9 mix −, dose 556 μg/plate",22
same,Number of revertant colonies WP2uvrA,"Escherichia coli WP2uvrA; S9 mix −, dose 1667 μg/plate",19
same,Number of revertant colonies WP2uvrA,"Escherichia coli WP2uvrA; S9 mix −, dose 5000 μg/plate",14
same,Number of revertant colonies TA1537,"[2]; S9 mix +, dose 6.9 μg/plate",13
same,Number of revertant colonies TA1537,"[2]; S9 mix +, dose 21 μg/plate",11
same,Number of revertant colonies TA1537,"[2]; S9 mix +, dose 62 μg/plate",12
same,Number of revertant colonies TA1537,"[2]; S9 mix +, dose 185 μg/plate",12
same,Number of revertant colonies TA1537,"[2]; S9 mix +, dose 556 μg/plate",8
same,Number of revertant colonies TA1537,"[2]; S9 mix +, dose 1667 μg/plate",3
same,Number of revertant colonies TA1537,"[2]; S9 mix +, dose 5000 μg/plate",1
same,Number of revertant colonies TA1537,"[2]; S9 mix −, dose 6.9 μg/plate",8
same,Number of revertant colonies TA1537,"[2]; S9 mix −, dose 21 μg/plate",7
same,Number of revertant colonies TA1537,"[2]; S9 mix −, dose 62 μg/plate",8
same,Number of revertant colonies TA1537,"[2]; S9 mix −, dose 185 μg/plate",7
same,Number of revertant colonies TA1537,"[2]; S9 mix −, dose 556 μg/plate",2
same,Number of revertant colonies TA1537,"[2]; S9 mix −, dose 1667 μg/plate",3
same,Number of revertant colonies TA1537,"[2]; S9 mix −, dose 5000 μg/plate",2
same,Number of revertant colonies TA100,"[3]; S9 mix +, dose 6.9 μg/plate",134
same,Number of revertant colonies TA100,"[3]; S9 mix +, dose 21 μg/plate",123
same,Number of revertant colonies TA100,"[3]; S9 mix +, dose 62 μg/plate",108
same,Number of revertant colonies TA100,"[3]; S9 mix +, dose 185 μg/plate",103
same,Number of revertant colonies TA100,"[3]; S9 mix +, dose 556 μg/plate",99
same,Number of revertant colonies TA100,"[3]; S9 mix +, dose 1667 μg/plate",67
same,Number of revertant colonies TA100,"[3]; S9 mix +, dose 5000 μg/plate",43
same,Number of revertant colonies TA100,"[3]; S9 mix −, dose 6.9 μg/plate",88
same,Number of revertant colonies TA100,"[3]; S9 mix −, dose 21 μg/plate",91
same,Number of revertant colonies TA100,"[3]; S9 mix −, dose 62 μg/plate",93
same,Number of revertant colonies TA100,"[3]; S9 mix −, dose 185 μg/plate",92
same,Number of revertant colonies TA100,"[3]; S9 mix −, dose 556 μg/plate",59
same,Number of revertant colonies TA100,"[3]; S9 mix −, dose 1667 μg/plate",29
same,Number of revertant colonies TA100,"[3]; S9 mix −, dose 5000 μg/plate",12
"CC(C)(OCc1cc(F)cc(-c2cc(N)nn2-c2ccc(F)cc2)c1)C(F)(F)F [Metabolite A, reference compound]",potential to induce reverse mutations,[1],had potential to induce reverse mutations
same,potential to induce reverse mutations,[2]; in the presence of S9 mix,had potential to induce reverse mutations
"Nc1cc(-c2cccc(OCC(F)(F)F)c2)n(-c2ccc(F)cc2)n1 [Metabolite B, reference compound]",potential to induce reverse mutations,[1],had potential to induce reverse mutations
same,potential to induce reverse mutations,[2]; in the absence of S9 mix,had potential to induce reverse mutations
same,potential to induce reverse mutations,[2]; in the presence of S9 mix,had potential to induce reverse mutations
same,potential to induce reverse mutations,[4]; in the presence of S9 mix,had potential to induce reverse mutations
same,potential to induce reverse mutations,[3],had potential to induce reverse mutations
"Cc1ccc(-n2nc(N)cc2-c2cccc(OCC(F)(F)F)c2)cc1 [Metabolite C, reference compound]",potential to induce reverse mutations,[1],had potential to induce reverse mutations
same,potential to induce reverse mutations,"Escherichia coli WP2uvrA; WP2uvrA, in the absence of S9 mix",had potential to induce reverse mutations
same,potential to induce reverse mutations,[2]; in the presence of S9 mix,had potential to induce reverse mutations
same,potential to induce reverse mutations,[3],had potential to induce reverse mutations
"Nc1cc(-c2cccc(OC(F)(F)F)c2)n(-c2cccc(F)c2)n1 [Metabolite D, reference compound]",potential to induce reverse mutations,[4]; in the absence of S9 mix,had potential to induce reverse mutations
same,potential to induce reverse mutations,[3],had potential to induce reverse mutations
"Cc1cccc(-n2nc(N)cc2-c2cccc(OC(F)(F)F)c2)c1 [Metabolite E, reference compound]",potential to induce reverse mutations,[1],had potential to induce reverse mutations
same,potential to induce reverse mutations,[2]; in the presence of S9 mix,had potential to induce reverse mutations
same,potential to induce reverse mutations,[3],had potential to induce reverse mutations

# Source: patent US10988462B2, “Pyrazole compounds substituted with heteroaryl and pharmaceutical use thereof” (Japan Tobacco Inc., priority 2018, dated 2021)
